Patent US20240217969A1, “SUBSTITUTED PYRROLE CARBOXAMIDES, PROCESS FOR THEIR PREPARATION AND THEIR USE AS KINASE INHIBITORS” (priority 2021, published 2024)

Experiments:
Cdc7 = Cdc7 (Homo sapiens, UniProt O00311); assay: Cdc7 biochemical assay, ADPGlo assay format
Description: The biochemical activity of compounds was determined by incubation with specific enzymes and substrate, followed by quantification of the ADP product. Compounds were 4-fold serially diluted from 10 to 0.0006 uM; in the case of the pre-incubation step, the enzyme is added to the inhibitor solution and the mixture is left to incubate for 30 minutes at room temperature (r.t.). The reaction started with the addition of the substrate and the ATP, when the enzyme was already present in the preincubation step, or substrate, ATP and enzyme when the preincubation step was not present. The concentrations of ATP, substrate and reaction buffer are described above. The assays were run in a robotized format on 384-well plates. […] At the end of the incubation time, an equal volume of ADPGlo Reagent 1 (Promega) was added to stop the reaction and to remove all unreacted ATP. After 60 minutes, an equal volume of ADPGlo Reagent 2 (Promega) was added to convert ADP in ATP and then ATP in light by luciferase reaction.
y=bottom+(top−bottom)/(1+10^((log IC50−x)*slope))
where x is the logarithm of the inhibitor concentration, y is the response; y starts at bottom and goes to top with a sigmoid shape.

[1] = target: T1, aldehyde oxidases (human liver cytosol) (Homo sapiens, UniProt Q06278); type: in vitro ADME; settings: human liver cytosol 1 mg/mL, 1 μM compound; for HLC % remaining (1 h incub.): 60 min incubation; for HLC % remaining (1 h incub.) / HLC T½ min: pH 7.4, 37° C.; for IntCl (Intrinsic Clearance): half-life approach
T1 construct: added to human liver cytosol (1 mg/mL protein content); from tissue; host or cells: human liver cytosol
T1 sequence (Q06278 whole entry): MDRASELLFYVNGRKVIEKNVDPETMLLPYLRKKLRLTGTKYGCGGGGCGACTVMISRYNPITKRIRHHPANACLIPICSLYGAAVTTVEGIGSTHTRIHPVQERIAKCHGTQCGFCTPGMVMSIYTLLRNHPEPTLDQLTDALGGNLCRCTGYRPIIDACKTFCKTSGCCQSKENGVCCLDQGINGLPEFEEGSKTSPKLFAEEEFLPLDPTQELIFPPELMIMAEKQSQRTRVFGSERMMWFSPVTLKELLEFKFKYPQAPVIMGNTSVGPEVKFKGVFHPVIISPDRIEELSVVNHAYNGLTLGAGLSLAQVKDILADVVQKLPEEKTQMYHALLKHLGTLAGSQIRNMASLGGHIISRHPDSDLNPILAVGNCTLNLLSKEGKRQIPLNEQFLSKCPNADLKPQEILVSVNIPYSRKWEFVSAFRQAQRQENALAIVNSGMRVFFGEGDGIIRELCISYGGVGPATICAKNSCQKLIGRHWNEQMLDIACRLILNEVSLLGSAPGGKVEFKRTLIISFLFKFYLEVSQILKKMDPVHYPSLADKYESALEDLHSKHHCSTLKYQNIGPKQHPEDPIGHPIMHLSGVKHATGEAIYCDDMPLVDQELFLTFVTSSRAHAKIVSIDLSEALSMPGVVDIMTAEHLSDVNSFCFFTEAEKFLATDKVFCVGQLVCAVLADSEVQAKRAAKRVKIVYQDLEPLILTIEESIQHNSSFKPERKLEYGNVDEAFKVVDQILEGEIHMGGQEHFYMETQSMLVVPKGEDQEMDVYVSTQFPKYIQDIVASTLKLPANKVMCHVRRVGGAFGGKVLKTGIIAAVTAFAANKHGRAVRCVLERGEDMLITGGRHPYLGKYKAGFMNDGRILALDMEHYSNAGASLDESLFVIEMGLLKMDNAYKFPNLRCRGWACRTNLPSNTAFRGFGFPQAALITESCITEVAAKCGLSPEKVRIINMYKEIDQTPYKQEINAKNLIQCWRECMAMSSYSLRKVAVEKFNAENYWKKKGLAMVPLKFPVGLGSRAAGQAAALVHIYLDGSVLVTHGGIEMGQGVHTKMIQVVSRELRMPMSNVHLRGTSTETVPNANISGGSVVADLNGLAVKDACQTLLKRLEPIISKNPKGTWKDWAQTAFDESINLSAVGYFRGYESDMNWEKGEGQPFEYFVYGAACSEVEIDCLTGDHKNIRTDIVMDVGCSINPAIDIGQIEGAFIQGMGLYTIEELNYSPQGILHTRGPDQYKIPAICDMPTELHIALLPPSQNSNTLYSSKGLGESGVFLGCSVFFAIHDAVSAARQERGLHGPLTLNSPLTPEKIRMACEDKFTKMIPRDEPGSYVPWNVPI
Description: The aldehyde oxidases involvement in the metabolism of the test item was determined by comparison of the intrinsic clearance values in the presence and absence of aldehyde oxidases inhibitor hydralazine hydrochloride. The purpose of the study was to evaluate the in-vitro intrinsic clearance, the metabolic stability towards aldehyde oxidases (AO) activity and the metabolism of the test item in human liver cytosol. The intrinsic clearance was determined using the half-life approach, by measuring the substrate disappearance along 60 minutes incubation with human liver cytosol. Incubations were performed at the concentration of 1 μM. […] HPLC-MS/MS was used for the detection of the compound left over during the incubation. For intrinsic clearance determination samples were analyzed by high performance liquid chromatography (HPLC) on-line with mass spectrometry (MS) equipment. For the determination of aldehyde oxidases activity (i.e. positive control) of cytosol, phthalazine was incubated with human liver cytosol in presence and absence of the aldehyde oxidases inhibitor. On the day of the incubation, the compound was dissolved in DMSO at the concentration of 10 mM. Aliquots of this solution were added to the test system to a final concentration of […]. The percentage of DMSO in the final incubates was […]. Aliquots of the test item were added to human liver cytosol (1 mg/mL protein content) in Dulbecco's buffer, pH 7.4 at 37° C., to reach final concentration of 1 μM. Incubations were performed in a 48-well plate, under shaking. At 0, 5, 10, 20, 30 and 60 minutes incubation, 50 μL aliquots of the incubate were sampled, poured in 80 μL of ice-cold acetonitrile and 20 μL of 1 μM warfarin in acetonitrile (injection control) and centrifuged at 2500 rpm for 20 minutes. The supernatant was immediately analysed by LC-MS/MS.
The test item was incubated in parallel, in duplicate, at the concentration of 1 μM in Dulbecco's buffer, pH 7.4 for 60 min at 37° C. in the presence of 10 μM hydralazine hydrochloride (aldehyde oxidases inhibitor).
The chemical stability of the test item was checked in parallel by incubating the test item in single at the concentration of 1 μM in Dulbecco's buffer, pH 7.4 for 60 min at 37° C. (negative control).
The intrinsic clearance (CLint) was calculated using the half-life approach. Half-life and CLint were determined from the concentration (area counts) remaining at the different sampling points using the LC-MS/MS method. By plotting the natural logarithmic area of the compound remaining against the time, the slope was calculated by linear regression analysis and converted into the half-life (t½) and CLint expressed as μL/min/mg protein according to the following formulae: […]

Sequence of Cdc7 (O00311 whole entry): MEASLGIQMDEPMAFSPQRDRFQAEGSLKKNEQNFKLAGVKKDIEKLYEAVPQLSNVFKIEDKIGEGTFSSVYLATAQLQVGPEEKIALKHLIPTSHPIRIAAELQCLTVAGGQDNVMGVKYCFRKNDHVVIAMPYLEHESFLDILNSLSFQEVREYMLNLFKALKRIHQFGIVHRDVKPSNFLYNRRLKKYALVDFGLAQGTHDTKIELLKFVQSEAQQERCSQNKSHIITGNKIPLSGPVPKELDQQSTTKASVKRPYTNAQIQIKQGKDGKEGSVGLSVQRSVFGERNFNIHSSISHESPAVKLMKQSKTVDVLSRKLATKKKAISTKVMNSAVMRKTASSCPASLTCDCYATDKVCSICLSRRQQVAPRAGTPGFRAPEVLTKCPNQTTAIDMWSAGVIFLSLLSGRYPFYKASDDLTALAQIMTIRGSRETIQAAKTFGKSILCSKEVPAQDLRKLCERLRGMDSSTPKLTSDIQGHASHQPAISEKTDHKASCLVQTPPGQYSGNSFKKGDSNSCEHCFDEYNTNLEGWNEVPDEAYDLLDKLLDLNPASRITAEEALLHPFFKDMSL
Sequence of Cdc7 (Q9UBU7 whole entry partner): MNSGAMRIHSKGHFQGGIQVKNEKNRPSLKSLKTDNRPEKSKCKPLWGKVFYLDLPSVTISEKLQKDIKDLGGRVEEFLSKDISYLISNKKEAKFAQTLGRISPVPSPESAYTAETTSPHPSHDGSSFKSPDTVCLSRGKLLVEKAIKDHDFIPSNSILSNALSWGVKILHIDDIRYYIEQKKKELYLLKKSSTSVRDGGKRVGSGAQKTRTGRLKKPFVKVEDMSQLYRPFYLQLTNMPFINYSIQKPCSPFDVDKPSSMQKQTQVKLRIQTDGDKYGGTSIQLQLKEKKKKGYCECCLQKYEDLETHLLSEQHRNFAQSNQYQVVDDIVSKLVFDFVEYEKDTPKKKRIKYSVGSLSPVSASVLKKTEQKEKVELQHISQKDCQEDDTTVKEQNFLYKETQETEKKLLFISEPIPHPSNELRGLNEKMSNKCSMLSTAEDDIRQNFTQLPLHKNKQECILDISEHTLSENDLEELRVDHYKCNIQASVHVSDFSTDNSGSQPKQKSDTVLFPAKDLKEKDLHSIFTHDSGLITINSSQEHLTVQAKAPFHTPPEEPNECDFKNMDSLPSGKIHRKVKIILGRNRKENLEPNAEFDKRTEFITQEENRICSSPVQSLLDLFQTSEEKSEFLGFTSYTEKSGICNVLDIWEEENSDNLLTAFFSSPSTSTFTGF

| SMILES | IC50 (Cdc7) | HLC % remaining (1 h incub.) [1] | IntCl (Intrinsic Clearance) [1] | HLC T½ min [1] |
| --- | --- | --- | --- | --- |
| Cc1ccc(-c2[nH]c(-c3ccnc4[nH]ccc34)cc2C(N)=O)c(Cl)c1 [comp 9, 2-(2-chloro-4-methylphenyl)-5-(1H-pyrrolo[2,3-b]pyridin-4-yl)-1H-pyrrole-3-carboxamide] | 1 nM | 100% | 2.9 μL/min/mg protein | 3.98 h |
| Cc1ccc(-c2[nH]c(-c3ccnc4[nH]ccc34)cc2C(N)=O)c(F)c1F [comp 10, 2-(2,3-difluoro-4-methylphenyl)-5-(1H-pyrrolo[2,3-b]pyridin-4-yl)-1H-pyrrole-3-carboxamide] | 3 nM | 95% | 2.9 μL/min/mg protein | 3.98 h |
| Cc1cc(C(F)(F)F)ccc1-c1[nH]c(-c2ccnc3[nH]ccc23)cc1C(N)=O [comp 11, 2-[2-methyl-4-(trifluoromethyl)phenyl]-5-(1H-pyrrolo[2,3-b]pyridin-4-yl)-1H-pyrrole-3-carboxamide] | 7 nM | 100% | 2.9 μL/min/mg protein | 3.98 h |
| COc1cccc(-c2[nH]c(-c3ccnc4[nH]ccc34)cc2C(N)=O)c1F [comp 12, 2-(2-fluoro-3-methoxyphenyl)-5-(1H-pyrrolo[2,3-b]pyridin-4-yl)-1H-pyrrole-3-carboxamide] | 4 nM | 97% | 2.9 μL/min/mg protein | 3.98 h |
| NC(=O)c1cc(-c2ccnc3[nH]ccc23)[nH]c1-c1cccc(F)c1Cl [comp 13, 2-(2-chloro-3-fluorophenyl)-5-(1H-pyrrolo[2,3-b]pyridin-4-yl)-1H-pyrrole-3-carboxamide] | 1 nM | 100% | 2.9 μL/min/mg protein | 3.98 h |
| Cc1cccc(-c2[nH]c(-c3ccnc4[nH]ccc34)cc2C(N)=O)c1F [comp 14, 2-(2-fluoro-3-methylphenyl)-5-(1H-pyrrolo[2,3-b]pyridin-4-yl)-1H-pyrrole-3-carboxamide] | 10 nM | 100% | 2.9 μL/min/mg protein | 3.98 h |
| Cc1c(-c2[nH]c(-c3ccnc4[nH]ccc34)cc2C(N)=O)cccc1C(F)(F)F [comp 15, 2-[2-methyl-3-(trifluoromethyl)phenyl]-5-(1H-pyrrolo[2,3-b]pyridin-4-yl)-1H-pyrrole-3-carboxamide] | 6 nM | 100% | 2.9 μL/min/mg protein | 3.98 h |
| NC(=O)c1cc(-c2cc(N)ncn2)[nH]c1-c1ccc(Cl)cc1Cl [compound 42, 5-(6-aminopyrimidin-4-yl)-2-(2,4-dichlorophenyl)-1H-pyrrole-3-carboxamide] | 90 nM | 100% | 2.9 μL/min/mg protein | 3.98 h |
| NC(=O)c1cc(-c2cn[nH]c2)[nH]c1-c1ccc(Cl)cc1Cl [compound 43, 2-(2,4-dichlorophenyl)-5-(1H-pyrazol-4-yl)-1H-pyrrole-3-carboxamide] | 13 nM | 100% | 2.9 μL/min/mg protein | 3.98 h |
| Cc1n[nH]cc1-c1cc(C(N)=O)c(-c2ccc(Cl)cc2Cl)[nH]1 [compound 44, 2-(2,4-dichlorophenyl)-5-(3-methyl-1H-pyrazol-4-yl)-1H-pyrrole-3-carboxamide] | 48 nM | 100% | 2.9 μL/min/mg protein | 3.98 h |
| NC(=O)c1cc(-c2ccnc3[nH]ccc23)[nH]c1-c1ccc(Cl)cc1Cl [compound 46, 2-(2,4-dichlorophenyl)-5-(1H-pyrrolo[2,3-b]pyridin-4-yl)-1H-pyrrole-3-carboxamide] | 1 nM | 100% | 2.9 μL/min/mg protein | 3.98 h |
| NC(=O)c1cc(-c2c[nH]nc2C(F)(F)F)[nH]c1-c1ccc(Cl)cc1Cl [compound 48, 2-(2,4-dichlorophenyl)-5-[3-(trifluoromethyl)-1H-pyrazol-4-yl]-1H-pyrrole-3-carboxamide] | 188 nM | 100% | 2.9 μL/min/mg protein | 3.98 h |
| Cc1ccc(-c2[nH]c(-c3cn[nH]c3)cc2C(N)=O)c(F)c1 [compound 49, 2-(2-fluoro-4-methylphenyl)-5-(1H-pyrazol-4-yl)-1H-pyrrole-3-carboxamide] | 18 nM | 100% | 2.9 μL/min/mg protein | 3.98 h |
